From patent US20070274947A1, “Antisense Oligonucleotides Directed to Ribonucleotide Reductase R1 and Uses Thereof in the Treatment of Cancer” (priority 2003, published 2007)
“Also recorded” adds a separate entry of the source.

Key:
[1] = cynomolgus monkey, in vivo
[2] = system: C8161 human melanoma cells; assay: Experimental metastasis of C8161 cells treated ex vivo (lung nodules, CD-1 athymic nude mice); type: in vivo; details: cells treated 4 hr with 0.2 μM plus Lipofectin before tail vein injection; 4 weeks; vs lipofectin alone
Protocol: A. Experimental metastasis of C8161 human melanoma cells treated with SEQ ID NO:1 was estimated as follows. Aliquots of C8161 cell suspension were seeded into 100 mm tissue culture dishes at a density of 2×10^6 and incubated overnight at 37° C. in α-MEM medium supplemented with 10% FBS. Following a wash with 10 ml of PBS, cells were treated for 4 hr with 0.2 μM of SEQ ID NO:1 in the presence of a cationic lipid (Lipofectin reagent, final concentration, 10 μg/ml, Gibco BRL) or with lipofectin alone (CONTROL) as a control. SEQ ID NO:1 was removed by washing the cells once with PBS. Cells were then collected by trypsinization and centrifugation. Approximately 1×10^5 cells suspended in 0.2 ml of PBS were injected into the tail veins of 6-8 week-old CD-1 athymic female nude mice. Estimates of the number of lung tumors were made 4 weeks later by counting metastatic foci formed on the excised lung surface, see FIG. 12A. Bars represent mean number of tumor nodules in lungs obtained from 7-9 animals per experimental group.

[3] = system: SIHA human cervical cancer cells; assay: SIHA cervical tumor growth in SCID mice; type: in vivo
Protocol: SIHA human cervical cancer cells (1×10^7 cells in 100 μl of PBS) were subcutaneously injected into the right flank of 6-7 week old female SCID mice. After the size of tumor reached an approximate volume of 100 mm^3, 7 days post tumor cell injection, SEQ ID NO:1 was administered by bolus infusion into the tail vein every other day at 10 mg/kg. Control animals received saline alone for the same period. Treatments lasted for 16 days thereafter. Antitumor activities were estimated by the inhibition of tumor volume (FIG. 11A), which was measured with a caliper on five different occasions over 16-day period. Each point represents mean tumor volume calculated from 10 animals per experimental group.

[4] = system: R1 mRNA; assay: Northern blot of R1 mRNA in MDA-MB-231 cells; type: cell-based, human; details: 0.2 μM, four hours with Lipofectin, 16 hours recovery
Protocol: Total RNA was isolated using TRIzol reagent (GIBCO BRL) after cells were treated with 0.2 μM SEQ ID NO:1 for four hours in the presence of cationic lipid (Lipofectin reagent, GIBCO BRL), washed with PBS, and incubated for 16 hours to recover in normal medium containing 10% FBS. Northern blot analysis was performed as previously described (Hurta and Wright, 1995). RNA was subjected to electrophoresis through 1% formaldehyde agarose gels followed by transfer to nylon membranes. Blots were hybridized in the presence of a R1 fragment (McClarty et al, 1987). Glyceraldehyde-3-phosphate dehydrogenase (GAPDH) mRNA levels were simultaneously probed for RNA loading controls.

[5] = Phase I study, 14-day continuous intravenous infusion in patients with solid tumors or lymphoma
Protocol: To determine the maximal tolerated dose (MTD) and recommended Phase II dose of SEQ ID NO:1 in patients with solid tumors or lymphoma when administered as a 14-day continuous intravenous infusion.
Safety: Adverse events and laboratory evaluation. Dosage Selection and Dosing Interval:
The starting dose in the Phase I dose-escalation study is 6.0 mg/m^2/day (approximately 0.16 mg/kg/day) infused over 14 days.
DLT Definition: • Grade 4 neutropenia associated with fever or lasting 3 days or longer. • Platelet count <25,000 μl. • Any ≧ grade 3 coagulation abnormality (defined by PT and aPTT values). • Clinical hemorrhage ≧ grade 1. • Nausea/vomiting ≧ grade 3 despite maximal antiemetic therapy; diarrhea ≧ grade 3 despite maximal anti-diarrheal therapy. • Any other non-hematological toxicity ≧grade 3 with the exception of alopecia Interim Evaluation Status:
Preliminary evaluability assessment was performed. In the Phase I open label single arm study, SEQ ID NO:1 was administered in daily doses escalating from 6.0 mg/m^2 to 210.9 mg/m^2 in patients with solid tumors or lymphoma. SEQ ID NO:1 was administered as monotherapy by ambulatory intravenous infusion for 14 days in each 21 day cycle. […] Expected toxicities for agents in the same class as SEQ ID NO:1, phosphorothioate oligonucleotides, include fatigue, prolonged coagulation (PT/aPITI) times and elevated transaminase ALT/AST) levels.

[6] = system: human tumors; assay: In vivo primary pharmacology, human tumors in mouse models
[7] = 14-day continuous intravenous infusion toxicity study in the rat; type: in vivo, Sprague Dawley rats

5′-CTCTAGCGTCTTAAAGCCGA-3′ (CTCTAGCGTCTTAAAGCCGA; chemistry not given here) [SEQ ID NO:1]
APTT values compared to control [1]: significantly longer | WBC counts [1]: marked increase | appetite [1]: significant decrease in appetite noted in the majority of high dose males | clinical signs [1]: Treatment-related reversible clinical signs were limited to a few high dose animals | lymphoid atrophy [1]: minimal to moderate lymphoid atrophy | ophthalmoscopy [1]: Bilateral retinopathy was noted in one high dose male | organ weights [1]: slight increase in relative and absolute kidney weights | red blood cell, hematocrit, and hemoglobin values [1]: slight to moderate reductions | summary of effects ([1]; 50 mg/kg/day): reversible signs of weakness, decreases in body weight and appetite, prolongation of APTT, anemia, thrombocytopenia, and monocytosis | number of lung tumor nodules [2]: significantly reduced the formation of lung colonies | inhibition of tumor volume ([3]; 10 mg/kg i.v. every other day, 16 days, vs saline): strong inhibitory effects | weight of excised tumors ([3]; end of treatments): strong antitumor effect | R1 mRNA level [4]: specifically decreases R1 mRNA; also recorded: significant decrease; also recorded: decreased R1 mRNA levels | drug related serious adverse events ([5]; human, in vivo): no drug related serious adverse events | tolerability ([5]; human, in vivo): well tolerated | additional sporadic toxicities considered possibly related to study therapy ([5]; interim evaluation): Grade 3 hypokalemia, Grade 3 increased blood alkaline phosphatase and Grade 3 diarrhea | patients with Grade 3 fatigue ([5]; interim evaluation): Two patients | patients with Grade 3 increased ALT ([5]; interim evaluation): three patients | patients with Grade 3 increased AST ([5]; interim evaluation): one patient | patients with prolonged aPTT ([5]; interim evaluation): one patient | maximum tolerated dose (MTD) ([5]; patients, no MTD seen up to and including this dose, interim): ≥ 210.9 mg/m^2/day | efficacy in tumor xenograft experiments ([6]; SCID mice that are T and B cell deficient): highly effective | growth of human tumors in mouse models ([6]; doses of 1.0 to 10 mg/kg/day): significantly inhibited the growth | sex effect on adverse effects [7]: more pronounced in males than females | treatment-related effects in the high dose group ([7]; 50 mg/kg/day (reduced to 40 mg/kg/day), 14-day infusion): severe adverse clinical signs and mortality; also recorded: high morbidity and mortality, reduced body weights and reduced food consumption | clinical pathology results ([7]; 2, 10, 50 mg/kg/day, 14 days): dose-dependent anemia, thrombocytopenia, coagulopathic selectivity for APTT, and liver and kidney toxicity in both sexes | pathological findings ([7]; 2, 10, 50 mg/kg/day, 14 days): major treatment-related changes in numerous tissues and organs of the high dose animals, in most tissues and organs of the mid dose animals; and sporadically in the evaluated tissues and organs of the low dose animals | toxicity ([7]; continuously for 14 days at 10 mg/kg/day (59 mg/m^2/day)): Severe toxicity
